Reference: article PMC4526387 (Clinical cancer research : an official journal of the …, 2015)
Like-named read-outs stand apart in the source and are kept apart here.

Assays:
[1] = tested on: metastatic renal cell carcinoma (mRCC); settings: subset with one prior VEGF-TKI; ref AXIS trial; cited from earlier work
[2] = Randomized phase II: adverse events; type: in vivo, human
[3] = tested on: metastatic renal cell carcinoma (mRCC); assay: Randomized phase II: 6MPFS, PFS, response; type: in vivo, human
[4] = tested on: metastatic renal cell carcinoma (mRCC); settings: subset with one prior VEGF-TKI; ref RECORD-1 trial; cited from earlier work
[5] = Phase I PK of everolimus in whole blood; type: in vivo, human; settings: 6-hour collection interval, everolimus 10 mg daily
[6] = cited from earlier work
[7] = tested on: metastatic renal cell carcinoma (mRCC); type: in vivo, human; settings: rise in MMP-9 and SCF and fall in SHBG and SAP
advanced solid tumors = settings: 21 patients, cited from earlier work

CNC(=O)c1ccccc1Sc1ccc2c(/C=C/c3ccccn3)n[nH]c2c1 [axitinib]
median PFS [1]: 4.8 months

CO[C@H]1C[C@@H]2CC[C@@H](C)[C@@](O)(O2)C(=O)C(=O)N2CCCC[C@H]2C(=O)O[C@H]([C@H](C)C[C@@H]2CC[C@@H](OCCO)[C@H](OC)C2)CC(=O)[C@H](C)/C=C(\C)[C@@H](O)[C@@H](OC)C(=O)[C@H](C)C[C@H](C)/C=C/C=C/C=C/1C [everolimus]
Abdominal pain % ([2]; % of arm): 10.4%
Acneiform rash % ([2]; % of arm): 10.4%
Anorexia % ([2]; % of arm): 23.9%
Back pain % ([2]; % of arm): 26.9%
Constipation % ([2]; % of arm): 22.4%
Cough % ([2]; % of arm): 20.9%
Diarrhea % ([2]; % of arm): 23.9%
Dyspnea % ([2]; % of arm): 31.3%
Epistaxis/Respiratory tract hemorrhage % ([2]; % of arm): 11.9%
Extremity pain % ([2]; % of arm): 13.4%
Fatigue % ([2]; % of arm): 44.8%
Fever % ([2]; % of arm): 17.9%
Headache % ([2]; % of arm): 16.4%
Insomnia % ([2]; % of arm): 16.4%
Lower extremity % ([2]; % of arm): 19.4%
Nausea % ([2]; % of arm): 23.9%
Nausea/Vomiting % ([2]; % of arm): 16.4%
Proteinuria % ([2]; % of arm): 14.9%
Pruritus % ([2]; % of arm): 7.5%
Rash % ([2]; % of arm): 22.4%
Skin changes % ([2]; % of arm): 20.9%
Stomatitis % ([2]; % of arm): 28.4%
Taste alteration % ([2]; % of arm): 14.9%
Elevated ALT % ([2]; laboratory, % of arm): 10.4%
Elevated AST % ([2]; laboratory, % of arm): 11.9%
Elevated alkaline phosphatise % ([2]; laboratory, % of arm): 14.9%
Elevated creatinine % ([2]; laboratory, % of arm): 11.9%
Hypercholesterolemia % ([2]; laboratory, % of arm): 28.4%
Hyperglycemia % ([2]; laboratory, % of arm): 25.4%
Hypertriglyceridemia % ([2]; laboratory, % of arm): 31.3%
Hyponatremia % ([2]; laboratory, % of arm): 11.9%
Low hemoglobin % ([2]; laboratory, % of arm): 37.3%
Thrombocytopenia % ([2]; laboratory, % of arm): 14.9%
Elevated ALT Grade 1/2 ([2]; laboratory, number of patients): 7
Elevated ALT Grade 3/4 ([2]; laboratory, number of patients): 0
Elevated ALT Grade 5 ([2]; laboratory, number of patients): 0
Elevated ALT Total ([2]; laboratory, number of patients): 7
Elevated AST Grade 1/2 ([2]; laboratory, number of patients): 8
Elevated AST Grade 3/4 ([2]; laboratory, number of patients): 0
Elevated AST Grade 5 ([2]; laboratory, number of patients): 0
Elevated AST Total ([2]; laboratory, number of patients): 8
Elevated alkaline phosphatise Grade 1/2 ([2]; laboratory, number of patients): 9
Elevated alkaline phosphatise Grade 3/4 ([2]; laboratory, number of patients): 1
Elevated alkaline phosphatise Grade 5 ([2]; laboratory, number of patients): 0
Elevated alkaline phosphatise Total ([2]; laboratory, number of patients): 10
Elevated creatinine Grade 1/2 ([2]; laboratory, number of patients): 5
Elevated creatinine Grade 3/4 ([2]; laboratory, number of patients): 3
Elevated creatinine Grade 5 ([2]; laboratory, number of patients): 0
Elevated creatinine Total ([2]; laboratory, number of patients): 8
Hypercholesterolemia Grade 1/2 ([2]; laboratory, number of patients): 19
Hypercholesterolemia Grade 3/4 ([2]; laboratory, number of patients): 0
Hypercholesterolemia Grade 5 ([2]; laboratory, number of patients): 0
Hypercholesterolemia Total ([2]; laboratory, number of patients): 19
Hyperglycemia Grade 1/2 ([2]; laboratory, number of patients): 12
Hyperglycemia Grade 3/4 ([2]; laboratory, number of patients): 5
Hyperglycemia Grade 5 ([2]; laboratory, number of patients): 0
Hyperglycemia Total ([2]; laboratory, number of patients): 17
Hypertriglyceridemia Grade 1/2 ([2]; laboratory, number of patients): 17
Hypertriglyceridemia Grade 3/4 ([2]; laboratory, number of patients): 4
Hypertriglyceridemia Grade 5 ([2]; laboratory, number of patients): 0
Hypertriglyceridemia Total ([2]; laboratory, number of patients): 21
Hyponatremia Grade 1/2 ([2]; laboratory, number of patients): 5
Hyponatremia Grade 3/4 ([2]; laboratory, number of patients): 3
Hyponatremia Grade 5 ([2]; laboratory, number of patients): 0
Hyponatremia Total ([2]; laboratory, number of patients): 8
Low hemoglobin Grade 1/2 ([2]; laboratory, number of patients): 19
Low hemoglobin Grade 3/4 ([2]; laboratory, number of patients): 6
Low hemoglobin Grade 5 ([2]; laboratory, number of patients): 0
Low hemoglobin Total ([2]; laboratory, number of patients): 25
Thrombocytopenia Grade 1/2 ([2]; laboratory, number of patients): 8
Thrombocytopenia Grade 3/4 ([2]; laboratory, number of patients): 2
Thrombocytopenia Grade 5 ([2]; laboratory, number of patients): 0
Thrombocytopenia Total ([2]; laboratory, number of patients): 10
Abdominal pain Grade 1/2 ([2]; number of patients): 5
Abdominal pain Grade 3/4 ([2]; number of patients): 2
Abdominal pain Grade 5 ([2]; number of patients): 0
Abdominal pain Total ([2]; number of patients): 7
Acneiform rash Grade 1/2 ([2]; number of patients): 7
Acneiform rash Grade 3/4 ([2]; number of patients): 0
Acneiform rash Grade 5 ([2]; number of patients): 0
Acneiform rash Total ([2]; number of patients): 7
Anorexia Grade 1/2 ([2]; number of patients): 15
Anorexia Grade 3/4 ([2]; number of patients): 1
Anorexia Grade 5 ([2]; number of patients): 0
Anorexia Total ([2]; number of patients): 16
Back pain Grade 1/2 ([2]; number of patients): 12
Back pain Grade 3/4 ([2]; number of patients): 6
Back pain Grade 5 ([2]; number of patients): 0
Back pain Total ([2]; number of patients): 18
Constipation Grade 1/2 ([2]; number of patients): 15
Constipation Grade 3/4 ([2]; number of patients): 0
Constipation Grade 5 ([2]; number of patients): 0
Constipation Total ([2]; number of patients): 15
Cough Grade 1/2 ([2]; number of patients): 13
Cough Grade 3/4 ([2]; number of patients): 1
Cough Grade 5 ([2]; number of patients): 0
Cough Total ([2]; number of patients): 14
Diarrhea Grade 1/2 ([2]; number of patients): 16
Diarrhea Grade 3/4 ([2]; number of patients): 0
Diarrhea Grade 5 ([2]; number of patients): 0
Diarrhea Total ([2]; number of patients): 16
Dyspnea Grade 1/2 ([2]; number of patients): 17
Dyspnea Grade 3/4 ([2]; number of patients): 4
Dyspnea Grade 5 ([2]; number of patients): 0
Dyspnea Total ([2]; number of patients): 21
Epistaxis/Respiratory tract hemorrhage Grade 1/2 ([2]; number of patients): 8
Epistaxis/Respiratory tract hemorrhage Grade 3/4 ([2]; number of patients): 0
Epistaxis/Respiratory tract hemorrhage Grade 5 ([2]; number of patients): 0
Epistaxis/Respiratory tract hemorrhage Total ([2]; number of patients): 8
Extremity pain Grade 1/2 ([2]; number of patients): 8
Extremity pain Grade 3/4 ([2]; number of patients): 1
Extremity pain Grade 5 ([2]; number of patients): 0
Extremity pain Total ([2]; number of patients): 9
Fatigue Grade 1/2 ([2]; number of patients): 24
Fatigue Grade 3/4 ([2]; number of patients): 6
Fatigue Grade 5 ([2]; number of patients): 0
Fatigue Total ([2]; number of patients): 30
Fever Grade 1/2 ([2]; number of patients): 10
Fever Grade 3/4 ([2]; number of patients): 2
Fever Grade 5 ([2]; number of patients): 0
Fever Total ([2]; number of patients): 12
Headache Grade 1/2 ([2]; number of patients): 10
Headache Grade 3/4 ([2]; number of patients): 1
Headache Grade 5 ([2]; number of patients): 0
Headache Total ([2]; number of patients): 11
Insomnia Grade 1/2 ([2]; number of patients): 11
Insomnia Grade 3/4 ([2]; number of patients): 0
Insomnia Grade 5 ([2]; number of patients): 0
Insomnia Total ([2]; number of patients): 11
Lower extremity Grade 1/2 ([2]; number of patients): 13
Lower extremity Grade 3/4 ([2]; number of patients): 0
Lower extremity Grade 5 ([2]; number of patients): 0
Lower extremity Total ([2]; number of patients): 13
Nausea Grade 1/2 ([2]; number of patients): 14
Nausea Grade 3/4 ([2]; number of patients): 2
Nausea Grade 5 ([2]; number of patients): 0
Nausea Total ([2]; number of patients): 16
Nausea/Vomiting Grade 1/2 ([2]; number of patients): 9
Nausea/Vomiting Grade 3/4 ([2]; number of patients): 2
Nausea/Vomiting Grade 5 ([2]; number of patients): 0
Nausea/Vomiting Total ([2]; number of patients): 11
Proteinuria Grade 1/2 ([2]; number of patients): 10
Proteinuria Grade 3/4 ([2]; number of patients): 0
Proteinuria Grade 5 ([2]; number of patients): 0
Proteinuria Total ([2]; number of patients): 10
Pruritus Grade 1/2 ([2]; number of patients): 4
Pruritus Grade 3/4 ([2]; number of patients): 1
Pruritus Grade 5 ([2]; number of patients): 0
Pruritus Total ([2]; number of patients): 5
Rash Grade 1/2 ([2]; number of patients): 15
Rash Grade 3/4 ([2]; number of patients): 0
Rash Grade 5 ([2]; number of patients): 0
Rash Total ([2]; number of patients): 15
Skin changes Grade 1/2 ([2]; number of patients): 11
Skin changes Grade 3/4 ([2]; number of patients): 3
Skin changes Grade 5 ([2]; number of patients): 0
Skin changes Total ([2]; number of patients): 14
Stomatitis Grade 1/2 ([2]; number of patients): 13
Stomatitis Grade 3/4 ([2]; number of patients): 6
Stomatitis Grade 5 ([2]; number of patients): 0
Stomatitis Total ([2]; number of patients): 19
Taste alteration Grade 1/2 ([2]; number of patients): 10
Taste alteration Grade 3/4 ([2]; number of patients): 0
Taste alteration Grade 5 ([2]; number of patients): 0
Taste alteration Total ([2]; number of patients): 10
6-month progression-free survival (6MPFS) ([3]; phase II): 30.30%
partial responses (number) ([3]; phase II): 2
median PFS amongst patients with liver metastasis ([3]; phase II exploratory analysis): 2.8 months
median PFS [4]: 5.4 months
overall mean concentration [5]: 17.8 ng/mL
half-life [6]: 26 to 38 h
mean trough concentration at steady state ([6]; patients who received 10 mg everolimus daily): 13.2 ng/mL

COc1cc(C(=O)c2c(C)oc3c(OP(=O)([O-])[O-])c(OC)ccc23)cc(OC)c1OC.[Na+].[Na+] [BNC105P]
patients progression free at 6 months, selected population [7]: 60%
objective responses (advanced solid tumors): no objective responses
patients with stable disease (SD) as best response (advanced solid tumors): 4 patients
intravenous dose identified for further studies (advanced solid tumors; days 1 and 8 of a 21-day cycle): 16 mg/m^2
